Consider 21 compounds from US20130040908A1, “SUBSTITUTION DERIVATIVES OF N6-BENZYLADENOSINE-5' -MONOPHOSPHATE, METHODS OF PREPARATION THEREOF, USE THEREOF AS MEDICAMENTS, AND THERAPEUTIC PREPARATIONS CONTAINING THESE COMPOUNDS” (BIOAPEX, S.R.O., priority 2010, published 2013).

Test [1] relates to CEM (T-lymphoblastoid leukemia). The experiment in a line: Calcein AM cytotoxicity assay, CEM. The format is cell-based. The conditions noted are these: 72 hours. An excerpt:
(§1) Because toxic compounds negatively influence metabolic processes in cells, many standard cytotoxicity assays are based on measurement of metabolisation rate of various artificial substrates. Resulting product is then quantified e.g. by means of spectrometry. The assays can be easily modified for use in 96-well plates. For evaluation of cytotoxic effect of the novel substituted 9-substituted cytokinin derivatives of this invention, a microtiter assay based on quantification of metabolisation of Calcein AM was used. The assay is widely used in drug screening programs and in chemosensitivity testing. In the living cells, Calcein AM is enzymatically hydrolysed and accumulation of resulting calcein is manifested by green fluorescence.
(§2) Normal human fibroblasts BJ were used as a control for routine screening of the compounds. The cells were kept in Nunc/Corning 80 cm^2 plastic bottles and grown in cell culture medium (DMEM containing 5 g/l glucose, 2 mM glutamine, 100 U/ml penicillin, 100 μg/ml streptomycine, 10% fetal bovine serum and sodium hydrogencarbonate), the compounds were prepared according to the procedure of the present invention.
(§3) The cell suspensions were prepared and diluted according to the particular cell type and the expected target cell density (2.500-30.000 cells per well based on cell growth characteristics) and pippetted (80 μl) into 96-well plates. […] Tested compound was added in total volume of 20 μl of water at time zero. Usually, test compound was evaluated at six 3-fold dilutions. […] All drug concentrations were tested in triplicates. […] At the end of incubation period Calcein AM in PBS was added into final concentration of 1 μg/ml. After another 1 hour of incubation fluorescence (FD) was measured with the Labsystem FIA Reader Fluoroscan Ascent (UK). Growth inhibition (GI) was estimated using the following equitation: GI=(mean FDdrug exposed wells−mean FDblank)/(mean FDcontrol wells−mean FDblank)×100%.

Test [2] relates to K-562 (human erythroleukemia). The experiment in a line: Calcein AM cytotoxicity assay, K-562. The format is cell-based. The conditions noted are these: K-562, 72 hours.
Source text: as §1, §2, §3

Test [3] deals with HL-60 (promyelocytic leukemia). Kind of test: Calcein AM cytotoxicity assay, HL60. The format is cell-based, human. To be noted: HL60, 72 hours.
Source text: as §1, §2, §3

Test [4] concerns Human lymphocytes. The experiment in a line: Immunosuppressive activity, 3H-thymidine incorporation in concanavalin A activated lymphocytes. The format is cell-based. To be noted: 72 hours, [3H]-TdR. An excerpt:
One of the most important parameters of specific cellular immunity is the proliferative response of lymphocytes to antigens or polyclonal mitogens. The majority of normal mammalian peripheral lymphocytes comprise resting cells. Antigens or nonspecific polyclonal mitogens have the capacity to activate lymphoid cells and this is accompanied by dramatic changes of intracellular metabolism (mitochondrial activity, protein synthesis, nucleic acids synthesis, formation of blastic cells and cellular proliferation). […] Variety of in vitro assays was developed to measure proliferative response of lymphocytes. The most commonly used is ^3H-thymidine incorporation method.
During cell proliferation, DNA has to be replicated before the cell is divided into two daughter cells. This close association between cell doublings and DNA synthesis is very attractive for assessing cell proliferation. If labelled DNA precursors are added to the cell culture, cells that are about to divide incorporate the labelled nucleotide into their DNA. Traditionally, those assays usually involve the use of radiolabelled nucleosides, particularly tritiated thymidine ([^3H]-TdR). The amount of [^3H]-TdR incorporated into the cellular DNA is quantified by liquid scintillation counting. Human heparinized peripheral blood was obtained from healthy volunteers by cubital vein punction. The blood was diluted in PBS (1:3) and mononuclear cells were separated by centrifugation in Ficoll-Hypaque density gradient (Pharmacia, 1.077 g/ml) at 2200 rpm for 30 minutes. Following centrifugation, lymphocytes were washed in PBS and resuspended in cell culture medium (RMPI 1640, 2 mM glutamine, 100 U/ml penicillin, 100 μg/ml streptomycin, 10% fetal calf serum and sodium bicarbonate).
The cells were diluted at target density of 1.100.000 cells/ml and were added by pipette (180 μl) into 96-well microtiter plates. Four-fold dilutions of the intended test concentration were added at time zero in 20 μl aliquots to the microtiter plate wells. Usually, test compound was evaluated at six 4-fold dilutions. In routine testing, the highest well concentration was 266.7 μM. All drug concentrations were examined in duplicates. All wells with exception of unstimulated controls were activated with 50 of concanavalin A (25 μg/ml). Incubations of cells with test compounds lasted for 72 hours at 37° C., in 5% CO2 atmosphere and 100% humidity. At the end of incubation period, the cells were assayed by using the [^3H]-TdR:
Cell cultures were incubated with 0.5 μCi (20 μl of stock solution 500 μCi/ml per well for 6 hours at 37° C. and 5% CO2. The automated cell harvester was used to lyse cells in water and adsorb the DNA onto glass-fiber filters in the format of microtiter plate. The DNA incorporated [^3H]-TdR was retained on the filter while unincorporated material passes through. The filters were dried at room temperature overnight, sealed into a sample bag with 10-12 ml of scintillant. The amount of [^3H]-TdR present in each filter (in cpm) was determined by scintillation counting in a Betaplate liquid scintillation counter. The effective dose of immunosuppressant (ED) was calculated using the following equation: ED=(CCPMdrug exposed well/mean CCPMcontrol wells)×100%. The ED50 value, the drug concentration inhibiting proliferation of 50% of lymphocytes, was calculated from the obtained dose response curves.
Background: Uptake of a labelled nucleoside into DNA is a usual measure of proliferation.

Test [5] concerns MCF-7 (breast carcinoma). The experiment in a line: Calcein AM cytotoxicity assay, MCF7. The format is cell-based. The conditions noted are these: MCF7, 72 hours.
Source text: as §1, §2, §3

One may read the GI50 as the concentration that inhibits growth by half.

As for `O=P(O)(O)OC[C@H]1O[C@@H](n2cnc3c(NCc4ccc(F)cc4Cl)ncnc32)[C@H](O)[C@@H]1O` [2-chloro-4-fluorobenzylamino, 6-(2-chloro-4-fluorobenzylamino)purine riboside-5′-monophosphate], the 50% growth inhibitory concentration (GI50) in test [1] is 12.7 µM; in test [2], 9.6 µM; in test [3], 7.9 µM.

In the case of `O=P(O)(O)OC[C@H]1O[C@@H](n2cnc3c(NCc4cc(F)cc(F)c4)ncnc32)[C@H](O)[C@@H]1O` [Compound 37, 6-(3,5-difluorobenzylamino)purine riboside-5′-monophosphate], the GI50 is 21.1 µM in test [1] and 6.9 µM in test [3].

For `O=P(O)(O)OC[C@H]1O[C@@H](n2cnc3c(NCc4ccccc4F)ncnc32)[C@H](O)[C@@H]1O` [Compound 1, 6-(2-fluorobenzylamino)purine riboside-5′-monophosphate], the GI50 was 3.9 µM in test [1], 31.7 µM in test [2] and 3.3 µM in test [3]. Moreover, in test [4], the “Human lymphocytes ED50” value came out at 6.3 µM.

Take `O=P(O)(O)OC[C@H]1O[C@@H](n2cnc3c(NCc4cccc(Br)c4)ncnc32)[C@H](O)[C@@H]1O` [Compound 8, 6-(3-bromoobenzylamino)purine riboside-5′-monophosphate]: the GI50 in test [1] is 5.1 µM; in test [2], 19.1 µM; in test [3], 4.2 µM.

As for `O=P(O)(O)OC[C@H]1O[C@@H](n2cnc3c(NCc4ccc(Br)cc4)ncnc32)[C@H](O)[C@@H]1O` [Compound 9, 6-(4-bromobenzylamino)purine riboside-5′-monophosphate], the results for the GI50 in test [1], in test [2] and in test [3] were 17.6 µM, 49.9 µM and 41.3 µM, respectively.

For `O=P(O)(O)OC[C@H]1O[C@@H](n2cnc3c(NCc4ccccc4Cl)ncnc32)[C@H](O)[C@@H]1O` [Compound 4, 6-(2-chlorobenzylamino)purine riboside-5′-monophosphate], the values for the GI50 in test [1], in test [2] and in test [3] were 1.9 µM, 56 µM and 1.4 µM, respectively. The “Human lymphocytes ED50” value in test [4] turned out to be 8.7 µM.

Take `O=P(O)(O)OC[C@H]1O[C@@H](n2cnc3c(NCc4ccc(Cl)cc4Cl)ncnc32)[C@H](O)[C@@H]1O` [Compound 24]: the GI50 in test [1] is 81.2 µM; in test [2] it was 81.5 µM; in test [5] it was 122 µM; in test [3] it was 72.4 µM.

In the case of `O=P(O)(O)OC[C@H]1O[C@@H](n2cnc3c(NCc4ccc(F)c(F)c4F)ncnc32)[C@H](O)[C@@H]1O` [Compound 38, 6-(2,3,4-trifluorobenzylamino)purine riboside-5′-monophosphate], the GI50 in test [1] is 58.6 µM; in test [3], 11.3 µM.

Regarding `O=P(O)(O)OC[C@H]1O[C@@H](n2cnc3c(NCc4cccc(Cl)c4O)ncnc32)[C@H](O)[C@@H]1O` [2-hydroxy-3-chlorobenzylamino, 6-(2-hydroxy-3-chlorobenzylamino)purine riboside-5′-monophosphate], the “Human lymphocytes ED50” value in test [4] turned out to be 3.2 µM.

In the case of `O=P(O)(O)OC[C@H]1O[C@@H](n2cnc3c(NCc4ccc(Cl)cc4)ncnc32)[C@H](O)[C@@H]1O` [Compound 6, 6-(4-chlorobenzylamino)purine riboside-5′-monophosphate], the GI50 is 4.9 µM in test [1] and 12.6 µM in test [2]. In addition, the “Human lymphocytes ED50” value in test [4] is 3.3 µM.

With `O=P(O)(O)OC[C@H]1O[C@@H](n2cnc3c(NCc4ccc(F)cc4F)ncnc32)[C@H](O)[C@@H]1O` [Compound 36, 6-(2,4-difluorobenzylamino)purine riboside-5′-monophosphate], the 50% growth inhibitory concentration (GI50) in test [1] is 4.9 µM; in test [2], 5.9 µM; in test [3], 2.8 µM.

Turning to `COc1cc(CNc2ncnc3c2ncn3[C@@H]2O[C@H](COP(=O)(O)O)[C@@H](O)[C@H]2O)cc(OC)c1` [Compound 34, 6-(3,5-dimethoxybenzylamino)purine riboside-5′-monophosphate], the 50% growth inhibitory concentration (GI50) in test [3] is 19.8 µM.

Regarding `O=P(O)(O)OC[C@H]1O[C@@H](n2cnc3c(NCc4cccc(Cl)c4)ncnc32)[C@H](O)[C@@H]1O` [Compound 5, 6-(3-chlorobenzylamino)purine riboside-5′-monophosphate], the GI50 in test [1] was 1.5 µM; in test [2], 23.4 µM; in test [3] it was 0.5 µM. Moreover, in test [4], the “Human lymphocytes ED50” value is 3.2 µM.

As to `COc1cccc(CNc2ncnc3c2ncn3[C@@H]2O[C@H](COP(=O)(O)O)[C@@H](O)[C@H]2O)c1` [Compound 16, 6-(3-methoxybenzylamino)purine riboside-5′-monophosphate], the GI50 is 4.6 µM in test [1], 122 µM in test [2], 48.1 µM in test [5] and 5.1 µM in test [3].

For `O=P(O)(O)OC[C@H]1O[C@@H](n2cnc3c(NCc4c(F)ccc(F)c4F)ncnc32)[C@H](O)[C@@H]1O` [Compound 40, 6-(2,3,6-trifluorobenzylamino)purine riboside-5′-monophosphate], in test [3], the GI50 is 11.3 µM.

On to `COc1ccc(CNc2ncnc3c2ncn3[C@@H]2O[C@H](COP(=O)(O)O)[C@@H](O)[C@H]2O)c(OC)c1` [Compound 32, 6-(2,4-dimethoxybenzylamino)purine riboside-5′-monophosphate], for which, in test [3], the GI50 was 41 µM.

For `O=P(O)(O)OC[C@H]1O[C@@H](n2cnc3c(NCc4ccc(F)c(Cl)c4)ncnc32)[C@H](O)[C@@H]1O` [Compound 41, 6-(3-chloro-4-fluorobenzylamino)purine riboside-5′-monophosphate], the GI50 is 1.4 µM in test [1], 4.3 µM in test [2], 99.1 µM in test [5] and 3.1 µM in test [3].

As to `O=P(O)(O)OC[C@H]1O[C@@H](n2cnc3c(NCc4ccc(O)c(O)c4)ncnc32)[C@H](O)[C@@H]1O` [3,4-dihydroxybenzylamino, 6-(3,4-dihydroxybenzylamino)purine riboside-5′-monophosphate], in test [4], the “Human lymphocytes ED50” value was determined as 9.4 µM.

With `COc1cccc(CNc2ncnc3c2ncn3[C@@H]2O[C@H](COP(=O)(O)O)[C@@H](O)[C@H]2O)c1OC` [Compound 31, 6-(2,3-dimethoxybenzylamino)purine riboside-5′-monophosphate], the GI50 in test [3] was 91 µM.

Consider `O=P(O)(O)OC[C@H]1O[C@@H](n2cnc3c(NCc4ccc(O)cc4)ncnc32)[C@H](O)[C@@H]1O` [Compound 23, 6-(4-hydroxybenzylamino)purine riboside-5′-monophosphate], for which the GI50 in test [1] is 19.4 µM; in test [3], 9.7 µM.

As to `COc1ccc(CNc2ncnc3c2ncn3[C@@H]2O[C@H](COP(=O)(O)O)[C@@H](O)[C@H]2O)c(O)c1` [2-hydroxy-4-methoxybenzylamino, 6-(2-hydroxy-4-methoxybenzylamino)purine riboside-5′-monophosphate], the “Human lymphocytes ED50” value in test [4] turned out to be 2.1 µM.
